Reference: patent publication US6677368B2, “4-aryl substituted indolinones” (Sugen, Inc., priority 2000, dated 2004)

Tests used:
[1] = biological target: T1, PDGFR (UniProt P09619); experiment: PDGFR bioassay (ELISA, in vitro kinase activity); assay type: biochemical; conditions: PDGFR-β expressing NIH 3T3 cell lysate, 20 μM ATP
T1 construct: PDGFR-β expressing NIH 3T3 cell lysate (SUGEN, Inc.)
Protocol: This assay is used to the in vitro kinase activity of PDGFR in an ELISA assay.
1. Corning 96-well ELISA plates
2. 28D4C10 monoclonal anti-PDGFR antibody (SUGEN, Inc.).
5. Blocking Buffer (same as for EGFR bioassay).
6. PDGFR-β expressing NIH 3T3 cell lysate (SUGEN, Inc.).
11. Kinase buffer phosphorylation mix: for 10 ml, mix 250 μl 1M TRIS, 200 μl 5M NaCl, 100 μl 1M MnCl2 and 501l 100 mM Triton X-100 in enough dH2O to make 10 ml.
12. NUNC 96-well V bottom polypropylene plates.
14. Rabbit polyclonal anti-phosphotyrosine serum (SUGEN, Inc.).
15. Goat anti-rabbit IgG peroxidase conjugate (Biosource Cat. No. ALI0404).
17. Hydrogen peroxide, 30% solution.
1. Coat Corning 96 well ELISA plates with […] 28D4C 10 in 100 μl PBS per well, hold overnight at 4° C.
2. Remove unbound 28D4C10 from wells by inverting plate to remove liquid. Wash 1× with dH2O. Pat the plate on a paper towel to remove excess liquid.
3. Add 150 μl of Blocking Buffer to each well. Incubate for 30 min. at room temperature with shaking.
4. Wash plate 3× with deionized water, then once with TBST. Pat plate on a paper towel to remove excess liquid and bubbles.
5. Dilute lysate in HNTG (10 μg lysate/100 μl HNTG).
6. Add 100 μl of diluted lysate to each well. Shake at room temperature for 60 min.
7. Wash plates as described in Step 4.
8. Add 80 μl working kinase buffer mix to ELISA plate containing captured PDGFR.
9. Dilute test compound 1:10 in TBS in 96-well polypropylene plates.
10. Add 10 μl diluted test compound to -ELISA plate. To control wells, add 10 μl TBS+10% DMSO. Incubate with shaking for 30 minutes at room temperature.
11. Add 10 μl ATP directly to all wells except negative control well (final well volume should be approximately 100 μl with 20 μM ATP in each well.) Incubate 30 minutes with shaking.
12. Stop reaction by adding 10 μl of EDTA solution to each well.
13. Wash 4× with deionized water, twice with TBST.
14. Add 100 μl anti-phosphotyrosine (1:3000 dilution in TBST) per well.
Incubate with shaking for 30-45 min. at room temperature.
16. Add 100 μl Biosource Goat anti-rabbit IgG peroxidase conjugate (1:2000 dilution in TBST) to each well. Incubate with shaking for 30 min. at room temperature.
18. Add 100 μl of ABTS/H2O2 solution to each well.
19. Incubate 10 to 30 minutes with shaking. Remove any bubbles.
20. If necessary stop reaction with the addition of 100 μl 0.2 M HCl per well.
21. Read assay on Dynatech MR7000 ELISA reader with test filter at 410 nM and reference filter at 630 nM.

[2] = biological target: T2, SRC (Homo sapiens, UniProt P12931); experiment: Src transphosphorylation assay; assay type: biochemical; conditions: recombinant human Src, poly(Glu-Tyr) substrate
T2 construct: purchased UBI 14-117
T2 sequence (P12931 whole entry): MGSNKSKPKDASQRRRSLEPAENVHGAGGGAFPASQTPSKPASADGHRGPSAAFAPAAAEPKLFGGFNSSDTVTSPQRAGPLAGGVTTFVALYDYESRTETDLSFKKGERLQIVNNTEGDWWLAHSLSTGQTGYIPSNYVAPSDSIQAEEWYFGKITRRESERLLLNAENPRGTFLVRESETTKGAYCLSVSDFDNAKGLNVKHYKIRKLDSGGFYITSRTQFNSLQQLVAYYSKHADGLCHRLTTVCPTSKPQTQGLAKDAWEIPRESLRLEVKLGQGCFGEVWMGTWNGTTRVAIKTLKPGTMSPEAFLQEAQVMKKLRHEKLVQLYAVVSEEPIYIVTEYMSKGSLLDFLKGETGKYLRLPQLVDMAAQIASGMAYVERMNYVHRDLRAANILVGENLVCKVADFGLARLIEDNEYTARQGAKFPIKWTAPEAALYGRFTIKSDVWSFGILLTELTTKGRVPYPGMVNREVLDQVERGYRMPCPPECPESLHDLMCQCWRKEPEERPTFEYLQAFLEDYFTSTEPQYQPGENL
Protocol: Src Transphosphorylation Assay
This assay is used to screen for inhibitors of the tyrosine kinase Src.
1. Coating buffer: PBS containing sodium azide (0.2 mg/ml).
3. Wash buffer: PBS containing 0.05% v/v Tween 20 (PBS-TWEEN)
5. ATP (40 [M)+MgCl2 (80 mM) in distilled water.
6. MgCl2 (80 mM) in distilled water (for no ATP blanks).
7. Test compounds, 10 mM in DMSO.
8. Assay Buffer: 100 mM HEPES, pH 7.4, containing 2 mM DTT, 0.2 mM sodium orthovanadate and 0.2 mgs/ml BSA.
9. Partially purified recombinant human Src (UBI (14-117)
10. Anti-phosphotyrosine (SUGEN rabbit polyclonal anti-PY).
11. HRP-linked goat anti-rabbit Ig (Biosource International #6430)
12. HRP substrate ABTS or Pierce Peroxidase substrate.
13. Corning ELISA plates.
1. Coat plates with 100 μl of 20 μg/ml poly(Glu-Tyr) (Sigma Cat. No.P0275) containing 0.01% sodium azide. Hold overnight at 4° C.
2. Block with 1% BSA at 100 μl/well for one hour at room temperature.
3. Plate test compounds (10 mM in DMSO) at 2 ul/well on a Costar plate ready for dilution with dH2O and plating to reaction plates.
4. Dilute Src kinase 1:10,000 in Reaction Buffer, for 5 plates prepare 25 ml as follows: 2.5 mls 1M HEPES pH7.4 (stored sterile at 4° C.), 21.85 ml distilled water, 0.1 ml 5% BSA, 0.5 ml 10 mM sodium orthovanadate (stored sterile at 4° C.), 50 μl 1.0M DTT (stored frozen at […]), and 2.5 μl Src Kinase (stored frozen at −80° C.).
5. Add 48 μl of distilled water to the 2 ∥l of each compound in the dilution plate then add 25 μl/well of this to the reaction plate.
6. Add 50 μl of […] to each reaction buffer well and then 25 μl ATP-MgCl2/well (MgCl2 only to no ATP blanks). Incubate at room temperature for 15 minutes on plate shaker. Stop reaction by adding 25 μl of 0.5M EDTA to each well.
7. Wash 4× with PBS-TWEEN.
8. […] Incubate with continuous shaking at room temperature for one hour.
9. Wash plates 4× with PBS-TWEEN.
10. Add 100 μl HPP-linked Ig (1:5,000) in PBS-TWEEN containing 0.5% BSA, 0.025% Non-fat milk powder, 100 μM sodium orthovanadate. Incubate with shaking at room temperature for one hour.
11. Wash plates 4× with PBS-TWEEN and then once with PBS.
12. Develop plate using ABTS or other peroxidase substrate.

| IC50 [1] [µM] | IC50 [2] [µM] | SMILES |
| --- | --- | --- |
| 14.6 | > 20 | Cc1[nH]c(/C=C2\C(=O)Nc3cccc(-c4ccc(F)cc4)c32)c(C)c1C(=O)N1CCN(C)CC1 [Example 4, 3-[3,5-Dimethyl-4-(4-methyl-piperazine-1-carbonyl)-1H-pyrrol-2-ylmethylene]-4-(4-fluoro-phenyl)-1,3-dihydro-indol-2-one] |
| 11.9 | 1.82 | Cc1cc(C(=O)N2CC[C@H](N(C)C)C2)c(/C=C2\C(=O)Nc3cccc(-c4ccc(F)cc4)c32)[nH]1 [Example 10, 3-[3-((S)-3-Dimethylamino-pyrrolidine-1-carbonyl)-5-methyl-1H-pyrrol-2-ylmethylene]-4-(4-fluoro-phenyl)-1,3-dihydro-indol-2-one] |
| 3.39 | 10.4 | Cc1[nH]c(/C=C2\C(=O)Nc3cccc(-c4ccc(Cl)cc4)c32)c(C)c1C(=O)N1CCN(C)CC1 [Example 20, 4-(4-Chloro-phenyl)-3-[3,5-dimethyl-4-(4-methyl-piperazine-1-carbonyl)-1H-pyrrol-2-ylmethylene]-1,3-dihydro-indol-2-one] |
| 1.64 | 1.58 | Cc1[nH]c(/C=C2\C(=O)Nc3cccc(-c4ccc(Cl)cc4)c32)c(C)c1C(=O)NCCN1CCCC1 [Example 22, 5-[4-(4-Chloro-phenyl)-2-oxo-1,2-dihydro-indol-3-ylidenemethyl]-2,4-dimethyl-1H-pyrrole-3-carboxylic Acid (2-Pyrrolidin-1-yl-ethyl)-amide] |
| 11.7 | 9.86 | Cc1cc(C(=O)N2CC[C@@H](N(C)C)C2)c(/C=C2\C(=O)Nc3cccc(-c4ccc(Cl)cc4)c32)[nH]1 [Example 25, 4-(4-Chloro-phenyl)-3-[3-((R)-3-dimethylamino-pyrrolidine-1-carbonyl)-5-methyl-1H-pyrrol-2-ylmethylene]-1,3-dihydro-indol-2-one] |
| > 20 | 13.9 | Cc1cc(C(=O)N2C[C@@H](C)N[C@@H](C)C2)c(/C=C2\C(=O)Nc3cccc(-c4ccc(Cl)cc4)c32)[nH]1 [Example 27] |
| 11.6 | 5.37 | Cc1cc(C(=O)N2CC[C@H](N(C)C)C2)c(/C=C2\C(=O)Nc3cccc(-c4cccc(Cl)c4)c32)[nH]1 [Example 32, 4-(3-Chloro-phenyl)-3-[3-((S)-3-dimethylamino-pyrrolidine-1-carbonyl)-5-methyl-1H-pyrrol-2-ylmethylene]-1,3-dihydro-indol-2-one] |
| 1.59 | 9.72 | Cc1cc(C(=O)N2C[C@@H](C)N[C@@H](C)C2)c(/C=C2\C(=O)Nc3cccc(-c4cccc(Cl)c4)c32)[nH]1 [Example 35, 4-(3-Chloro-phenyl)-3-[3-((cis)-3,5-dimethyl-piperazine-1-carbonyl)-5-methyl-1H-pyrrol-2-ylmethylene]-1,3-dihydro-indol-2-one] |

Second part, the molecule before the results:

| SMILES | IC50 [1] [µM] | IC50 [2] [µM] |
| --- | --- | --- |
| CCN(CC)CCNC(=O)c1c(C)[nH]c(/C=C2\C(=O)Nc3cccc(-c4ccccc4)c32)c1C [Example 3, 2,4-Dimethyl-5-(2-oxo-4-phenyl-1,2-dihydro-indol-3-ylidenemethyl)-1H-pyrrole-3-carboxylic Acid (2-Diethylamino-ethyl)-amide] | 0.44 | 1.02 |
| Cc1[nH]c(/C=C2\C(=O)Nc3cccc(-c4ccc(F)cc4)c32)c(C)c1C(=O)NCCN1CCCC1 [Example 6, 5-[4-(4-Fluoro-phenyl)-2-oxo-1,2-dihydro-indol-3-ylidenemethyl]-2,4-dimethyl-1H-pyrrole-3-carboxylic Acid (2-Pyrrolidin-1-yl-ethyl)-amide] | 2.95 | 4.93 |
| CCN(CC)CCNC(=O)c1c(C)[nH]c(/C=C2\C(=O)Nc3cccc(-c4cccc(F)c4)c32)c1C [Example 13, 5-[4-(3-Fluoro-phenyl)-2-oxo-1,2-dihydro-indol-3-ylidenemethyl]-2,4-dimethyl-1H-pyrrole-3-carboxylic Acid (2-Diethylamino-ethyl)-amide] | 2.32 | 1.05 |
| Cc1[nH]c(/C=C2\C(=O)Nc3cccc(-c4cccc(F)c4)c32)c(C)c1C(=O)NCCn1ccnn1 [Example 15, 5-[4-(3-Fluoro-phenyl)-2-oxo-1,2-dihydro-indol-3-ylidenemethyl]-2,4-dimethyl-1H-pyrrole-3-carboxylic Acid (2-[1,2,3]Triazol-1-yl-ethyl)-amide] | 10.1 | 2.27 |
| CCOC(=O)c1c(C)[nH]c(/C=C2\C(=O)Nc3cccc(-c4cccc(F)c4)c32)c1CCCN1CCN(C)CC1 [Example 18, 5-[4-(3-Fluoro-phenyl)-2-oxo-1,2-dihydro-indol-3-ylidenemethyl]-2-methyl-4-[3-(4-methyl-piperazin-1-yl)-propyl]-1H-pyrrole-3-carboxylic Acid Ethyl Ester] | 10.4 | 7.81 |
| CCN(CC)CCNC(=O)c1c(C)[nH]c(/C=C2\C(=O)Nc3cccc(-c4cccc(Cl)c4)c32)c1C [Example 29, 5-[4-(3-Chloro-phenyl)-2-oxo-1,2-dihydro-indol-3-ylidenemethyl]-2,4-dimethyl-1H-pyrrole-3-carboxylic Acid (2-Diethylamino-ethyl)-amide] | 0.69 | 1.25 |
| Cc1cc(C(=O)NCCn2ccnn2)c(/C=C2\C(=O)Nc3cccc(-c4cccc(Cl)c4)c32)[nH]1 [Example 34, 2-[4-(3-Chloro-phenyl)-2-oxo-1,2-dihydro-indol-3-ylidenemethyl]-5-methyl-1H-pyrrole-3-carboxylic Acid (2-[1,2,3]Triazol-1-yl-ethyl)-amide] | > 20 | 7.26 |
| COc1ccc(-c2cccc3c2/C(=C/c2[nH]c(C)c(C(=O)NCCN4CCCC4)c2C)C(=O)N3)cc1 [Example 38, 5-[4-(4-Methoxy-phenyl)-2-oxo-1,2-dihydro-indol-3-ylidenemethyl]-2,4-dimethyl-1H-pyrrole-3-carboxylic Acid (2-Pyrrolidin-1-yl-ethyl)-amide] | 2.19 | 1.25 |
| COc1ccc(-c2cccc3c2/C(=C/c2[nH]c(C)c(C(=O)N4C[C@@H](C)N[C@@H](C)C4)c2C)C(=O)N3)cc1 [Example 40, 3-[4-((cis)-3,5-Dimethyl-piperazine-1-carbonyl)-3,5-dimethyl-1H-pyrrol-2-ylmethylene]-4-(4-methoxy-phenyl)-1,3-dihydro-indol-2-one] | 11.1 | 6.57 |
